Data on six compounds can be found in patent US12497403B2, “Factor XIa inhibitors” (Merck Sharp & Dohme LLC, priority 2021, dated 2025).

The target of one series is human Factor XIa (Homo sapiens, UniProt P03951). Description: Factor XIa assay. Format: biochemical. The note with it: human Factor XIa 0.04 nM, GPR-AFC substrate, 25° C., pH 7.4; read-out: FXIa IC50. On the procedure:
The effectiveness of a compound of the present invention as an inhibitor of Coagulation Factor XIa can be determined using a relevant purified serine protease, and an appropriate synthetic substrate. The rate of hydrolysis of the chromogenic or fluorogenic substrate by the relevant serine protease was measured both in the absence and presence of compounds of the present invention. Assays were conducted at room temperature or at 37° C. […] A decrease in the rate of fluorescence change in the presence of inhibitor is indicative of enzyme inhibition. Such methods are known to one skilled in the art. The results of this assay are expressed as the half-maximal inhibitory concentrations (IC50), or the inhibitory constant, Ki.
Compounds were pre-incubated for 30 minutes at 25° C. with human (0.04 nM) Factor XIa in 50 mM HEPES buffer with 150 mM sodium chloride, 5 mM calcium chloride, 0.1% PEG 8000, pH 7.4. Factor XIa enzymatic activity was determined by addition of the substrate glycine-proline-arginine-7-amido-4-trifluoromethylcoumarin (GPR-AFC) and measurement of the fluorescence at 400/505 nm after a 60 minute incubation at 25° C. The % inhibition for each data point was calculated from the data and analyzed using the log (inhibitor) vs. response four parameters equation to determine the half-maximal inhibitory concentrations (IC50). The IC50 were converted to equilibrium inhibitory constants (Ki) using the Cheng-Prusoff equation.

Series [1] can be described thus: High-throughput (HT) solubility determination. Format: physicochemical. To be noted: kinetic from dmso stock. On the procedure:
The chromatographic system consists of an Agilent 1290 UPLC/DAD system and ChemStation software, both from Agilent Technologies, USA. The separations are carried out on a Supelco Ascentis Express C18, 30 mm×3.0 mm I.D., 2.7 μm HPLC column. The mobile phase consists of Potassium phosphate buffered at pH 7 (mobile phase A) and acetonitrile (mobile phase B). The column oven temperature is set to 30° C. and the UPLC analysis consists of a gradient. The injection volume is 2 μL and the spectrophotometric detection is set to 215 and 238 nm.
A 10 mM stock solution of the compound in DMSO is supplied for analysis. 2.5 μL of stock solution (10 mM) was diluted into 247.5 μL of organic co-solvents (10% MeCN/80% MeOH/10% DMSO, v/v/v) to create a standard solution of 100 μM. To create the solubility solutions, 4.1 μL of 10 mM DMSO stock solution was diluted into […] of phosphate buffered saline (PBS) (pH 7) solution. A second 4.1 μL aliquot of 10 mM DMSO stock solution was added to 196 μL of PBS (pH 2) solution. A third 4.1 uL aliquot of 10 mM DMSO stock solution was added to 196 uL of FaSSIF (pH 6.5) solution. […] The equilibrated solubility solutions were filtered by centrifugation using a filter (0.45 μm, polypropylene). 50 μL each of the 100 μM standard solution and the filtered equilibrated solubility solutions were placed into a 384 well plate, and the plate was subsequently heat sealed.
Each standard and solubility solution was analyzed by UPLC/DAD. The solubility value was calculated by the following equation: Solubility=(Peak area of sample/Peak area of standard) (Standard concentration)

In a further series the target is T1, human tissue kallikrein (Homo sapiens, UniProt P06870).
T1 construct: purchased Ray Biotech or Evotec 228-10996
Description: Inhibition of tissue kallikrein enzymatic activity. Format: biochemical. The note with it: human tissue kallikrein 5 nM, N-acetyl-KPR-AFC substrate, 25° C., pH 7.4; read-out: tKal IC50. As to the method: Compounds were assayed with human tissue kallikrein (Ray Biotech, Cat # 228-10996 or Evotec, final concentration 5 nM) in 50 mM HEPES, 150 mM NaCl, 5 mM CaCl2, 0.1% PEG-8000, pH 7.4 at 25° C. in a Corning 3575 non-binding surface microplate. Compounds were tested in 10-point dose titrations starting at 166.67 uM with a 3-fold dilution series. Tissue kallikrein enzymatic activity was determined by measuring the rate of cleavage of N-acetyl-KPR-AFC substrate (Sigma, Cat # C6608, final concentration 100 uM) by continuously monitoring the fluorescence at 400/505 nm using a Tecan Safire plate-reader. The initial reaction rates (0) to 20 minutes) were used to determine percent inhibition. The % Inhibition for each data point was recalculated from the RFU/min data and analyzed using the log(inhibitor) vs. response four parameters equation with the GraphPad Prism software.

Where [2] appears, read: FaSSIF pH 6.5, shaken 24 hours at 25° C., read-out: pH 6.5 (FaSSIF) solubility.
Setting [3] is: phosphate buffered saline (PBS) pH 2, aqueous buffer, PBS pH 2, shaken 24 hours at 25° C., read-out: pH 2 solubility.

In brackets after ≈: the same amount, converted by molar mass. Like-named read-outs stand apart in the source and are kept apart here.

T1 sequence (P06870 25-262): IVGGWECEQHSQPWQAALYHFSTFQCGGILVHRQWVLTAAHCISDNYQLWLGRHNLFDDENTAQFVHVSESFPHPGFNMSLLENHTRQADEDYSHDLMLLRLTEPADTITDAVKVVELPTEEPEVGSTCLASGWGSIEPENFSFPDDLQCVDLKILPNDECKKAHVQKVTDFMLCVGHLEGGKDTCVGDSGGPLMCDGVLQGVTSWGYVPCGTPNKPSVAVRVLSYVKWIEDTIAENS
Chain of human Factor XIa (P03951 388-625 limits assumed): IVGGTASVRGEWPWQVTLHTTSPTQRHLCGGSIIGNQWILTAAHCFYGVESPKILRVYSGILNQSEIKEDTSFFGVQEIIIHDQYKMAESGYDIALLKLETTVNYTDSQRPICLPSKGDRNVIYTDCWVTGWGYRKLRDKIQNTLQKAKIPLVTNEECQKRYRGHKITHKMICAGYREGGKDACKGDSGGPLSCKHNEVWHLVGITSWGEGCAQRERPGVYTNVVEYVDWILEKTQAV
Chain of human Factor XIa (P03951 19-387 partner limits assumed): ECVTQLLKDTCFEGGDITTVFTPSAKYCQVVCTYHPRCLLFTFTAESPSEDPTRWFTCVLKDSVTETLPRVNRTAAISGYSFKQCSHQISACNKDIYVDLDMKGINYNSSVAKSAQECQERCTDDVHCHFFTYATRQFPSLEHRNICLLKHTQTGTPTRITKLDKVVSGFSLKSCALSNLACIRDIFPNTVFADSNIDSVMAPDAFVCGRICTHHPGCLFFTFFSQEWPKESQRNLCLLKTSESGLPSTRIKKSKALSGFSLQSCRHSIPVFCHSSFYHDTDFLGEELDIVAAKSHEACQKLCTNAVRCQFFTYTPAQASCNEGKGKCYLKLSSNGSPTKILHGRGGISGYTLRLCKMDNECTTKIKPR

Turning to `CCOC(=O)c1[nH]c2nc1-c1ccc(NC(=O)OC)cc1NC(=O)C(C)(C)CCC[C@@H]2c1ccc(-c2cc(F)ccc2-n2cc(C(F)(F)F)cn2)c[n+]1[O-]` [Example 1, (R,Z)-2-(1^5-(ethoxycarbonyl)-2^4-((methoxycarbonyl)amino)-5,5-dimethyl-4-oxo-1^1H-3-aza-1(4,2)-imidazola-2(1,2)-benzenacyclononaphane-9-yl)-5-(5-fluoro-2-(4-(trifluoromethyl)-1H-pyrazol-1-yl)phenyl)pyridine 1-oxide], the IC50 on human Factor XIa was 0.88 nM; on human tissue kallikrein it was > 167000 nM. Besides, the values for the solubility kinetic at 24 h in series [1] (setting [2]) and in series [1] (setting [3]) were 39 µM (≈ 29.2 µg/mL) and 147 µM (≈ 110 µg/mL), respectively.

Consider `CCOC(=O)c1[nH]c2nc1-c1ccc(NC(=O)OC)cc1NC(=O)C(C)(C)CCC[C@@H]2c1ccc(-c2cc(F)ccc2OC(F)F)c[n+]1[O-]` [Example 3, (R,Z)-5-(2-(difluoromethoxy)-5-fluorophenyl)-2-(1^5-(ethoxycarbonyl)-2^4-((methoxycarbonyl)amino)-5,5-dimethyl-4-oxo-1^1H-3-aza-1(4,2)-imidazola-2(1,2)-benzenacyclononaphane-9-yl)pyridine 1-oxide], for which the results for the IC50 on human Factor XIa and on human tissue kallikrein were 0.26 nM and 886 nM, respectively. The solubility kinetic at 24 h in series [1] (setting [2]) was 40 µM (≈ 27.3 µg/mL); in series [1] (setting [3]) it was 171 µM (≈ 117 µg/mL).

Take `CCOC(=O)c1[nH]c2nc1-c1ccc(NC(=O)OC)cc1NC(=O)C(C)(C)CCC[C@@H]2c1ccc(-c2cc(Cl)ccc2-n2cc(C(F)(F)F)cn2)c[n+]1[O-]` [Example 2, (R,Z)-5-(5-chloro-2-(4-(trifluoromethyl)-1H-pyrazol-1-yl)phenyl)-2-(1^5-(ethoxycarbonyl)-2^4-((methoxycarbonyl)amino)-5,5-dimethyl-4-oxo-1^1H-3-aza-1(4,2)-imidazola-2(1,2)-benzenacyclononaphane-9-yl)pyridine 1-oxide]: the IC50 on human Factor XIa is 0.97 nM; at human tissue kallikrein it was > 167000 nM. Also, the figures for the solubility kinetic at 24 h in series [1] (setting [2]) and in series [1] (setting [3]) were 27 µM (≈ 20.7 µg/mL) and 104 µM (≈ 79.7 µg/mL), respectively.

As for `CCOC(=O)c1[nH]c2nc1-c1ccc(NC(=O)OC)cc1NC(=O)C(C)(C)CCC[C@@H]2c1ccc(-c2cc(Cl)cnc2OC(F)F)c[n+]1[O-]` [Example 4, (R,Z)-5′-chloro-2′-(difluoromethoxy)-6-(1^5-(ethoxycarbonyl)-2^4-((methoxycarbonyl)amino)-5,5-dimethyl-4-oxo-1^1H-3-aza-1(4,2)-imidazola-2(1,2)-benzenacyclononaphane-9-yl)-[3,3′-bipyridine] 1-oxide], the IC50 was 1.3 nM on human Factor XIa and > 167000 nM on human tissue kallikrein. In addition, the solubility kinetic at 24 h in series [1] (setting [2]) was determined as 33 µM (≈ 23.1 µg/mL); in series [1] (setting [3]), 137 µM (≈ 95.8 µg/mL).

With `COC(=O)Nc1ccc2c(c1)NC(=O)C(C)(C)CCC[C@H](c1ccc(-c3cc(F)ccc3-n3cc(C(F)(F)F)cn3)c[n+]1[O-])c1nc-2c(C(=O)OC)[nH]1` [Example 6, (R,Z)-5-(5-fluoro-2-(4-(trifluoromethyl)-1H-pyrazol-1-yl)phenyl)-2-(1^5-(methoxycarbonyl)-2^4-((methoxycarbonyl)amino)-5,5-dimethyl-4-oxo-1^1H-3-aza-1(4,2)-imidazola-2(1,2)-benzenacyclononaphane-9-yl)pyridine 1-oxide], the figures for the IC50 on human Factor XIa and at human tissue kallikrein were 0.81 nM and > 167000 nM, respectively. For the same compound, the solubility kinetic at 24 h was determined as 64 µM (≈ 47.1 µg/mL) in series [1] (setting [2]) and 163 µM (≈ 120 µg/mL) in series [1] (setting [3]).

As to `CCOC(=O)c1[nH]c2nc1-c1ccc(NC(=O)OC)cc1NC(=O)C(C)(C)CCC[C@@H]2c1ccc(-c2cccc(Cl)c2F)c[n+]1[O-]` [Example 5, (R,Z)-5-(3-chloro-2-fluorophenyl)-2-(1^5-(ethoxycarbonyl)-2^4-((methoxycarbonyl)amino)-5,5-dimethyl-4-oxo-1^1H-3-aza-1(4,2)-imidazola-2(1,2)-benzenacyclononaphane-9-yl)pyridine 1-oxide], the IC50 worked out at 0.19 nM on human Factor XIa and 15000 nM on human tissue kallikrein. Besides, the solubility kinetic at 24 h in series [1] (setting [2]) is 51 µM (≈ 33.2 µg/mL); in series [1] (setting [3]), 108 µM (≈ 70.2 µg/mL).

In general, IC50 refers to the concentration needed to halve the response being measured.
